Measured values taken from the supplement of paper PMC10307832.

Columns and labels:
Assay in all cases: relative viability (nuclei count vs DMSO), 5 days (fraction); higher = more cells survive
Venetoclax + OSI-027 = compound: CC1(C)CCC(CN2CCN(c3ccc(C(=O)NS(=O)(=O)c4ccc(NCC5CCOCC5)c([N+](=O)[O-])c4)c(Oc4cnc5[nH]ccc5c4)c3)CC2)=C(c2ccc(Cl)cc2)C1 [Venetoclax] + COc1cccc2cc(-c3nc([C@H]4CC[C@H](C(=O)O)CC4)n4ncnc(N)c34)[nH]c12 [OSI-027] (partner 0.5 µM)
How it was run: (§1)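 A single step with final 0.05% Triton X-100, 1% formaldehyde and 1 ug/ml Hoechst fixed the cells and stained nuclei 5 days after treatment. Lung cancer cell lines in 1536-well plates had been treated by pin tool the day after seeding with one drug alone or a fixed anchor-drug dose plus five library-drug doses (not always all listed) in √10 steps, and nuclei were counted on 4× images. Relative viability is the ratio of nuclei in treated wells to nuclei in vehicle wells, taken as the median of duplicate plates.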

Venetoclax + Pictilisib = compound: CC1(C)CCC(CN2CCN(c3ccc(C(=O)NS(=O)(=O)c4ccc(NCC5CCOCC5)c([N+](=O)[O-])c4)c(Oc4cnc5[nH]ccc5c4)c3)CC2)=C(c2ccc(Cl)cc2)C1 [Venetoclax] + CS(=O)(=O)N1CCN(Cc2cc3nc(-c4cccc5[nH]ncc45)nc(N4CCOCC4)c3s2)CC1 [Pictilisib] (partner 1 µM)
How it was run: as §1

Selumetinib + Lapatinib = compound: Cn1cnc2c(F)c(Nc3ccc(Br)cc3Cl)c(C(=O)NOCCO)cc21 [Selumetinib] + CS(=O)(=O)CCNCc1ccc(-c2ccc3ncnc(Nc4ccc(OCc5cccc(F)c5)c(Cl)c4)c3c2)o1 [Lapatinib] (partner 2 µM)
How it was run: as §1

Selumetinib + Dasatinib = compound: Cn1cnc2c(F)c(Nc3ccc(Br)cc3Cl)c(C(=O)NOCCO)cc21 [Selumetinib] + Cc1nc(Nc2ncc(C(=O)Nc3c(C)cccc3Cl)s2)cc(N2CCN(CCO)CC2)n1 [Dasatinib] (partner 0.075 µM)
How it was run: as §1

COR-L 105
relative viability (Venetoclax + OSI-027; first compound 0.01 µM): 0.71 | relative viability (Venetoclax + OSI-027; first compound 0.03162 µM): 0.737 | relative viability (Venetoclax + OSI-027; first compound 0.1 µM): 0.552 | relative viability (Venetoclax + OSI-027; first compound 0.3162 µM): 0.707 | relative viability (Venetoclax + OSI-027; first compound 1 µM): 0.73 | relative viability (Venetoclax + Pictilisib; first compound 0.01 µM): 0.409 | relative viability (Venetoclax + Pictilisib; first compound 0.03162 µM): 0.526 | relative viability (Venetoclax + Pictilisib; first compound 0.1 µM): 0.367 | relative viability (Venetoclax + Pictilisib; first compound 0.3162 µM): 0.406 | relative viability (Venetoclax + Pictilisib; first compound 1 µM): 0.468 | relative viability (Selumetinib + Lapatinib; first compound 0.02 µM): 0.309 | relative viability (Selumetinib + Lapatinib; first compound 0.06325 µM): 0.3 | relative viability (Selumetinib + Lapatinib; first compound 0.2 µM): 0.337 | relative viability (Selumetinib + Lapatinib; first compound 0.6325 µM): 0.366 | relative viability (Selumetinib + Dasatinib; first compound 0.02 µM): 0.328 | relative viability (Selumetinib + Dasatinib; first compound 0.06325 µM): 0.239 | relative viability (Selumetinib + Dasatinib; first compound 0.2 µM): 0.224 | relative viability (Selumetinib + Dasatinib; first compound 0.6325 µM): 0.22

LK-2
relative viability (Venetoclax + OSI-027; first compound 0.01 µM): 0.317 | relative viability (Venetoclax + OSI-027; first compound 0.03162 µM): 0.204 | relative viability (Venetoclax + OSI-027; first compound 0.1 µM): 0.22 | relative viability (Venetoclax + OSI-027; first compound 0.3162 µM): 0.22 | relative viability (Venetoclax + OSI-027; first compound 1 µM): 0.161 | relative viability (Venetoclax + Pictilisib; first compound 0.01 µM): 0.799 | relative viability (Venetoclax + Pictilisib; first compound 0.03162 µM): 0.636 | relative viability (Venetoclax + Pictilisib; first compound 0.1 µM): 0.512 | relative viability (Venetoclax + Pictilisib; first compound 0.3162 µM): 0.54 | relative viability (Venetoclax + Pictilisib; first compound 1 µM): 0.613 | relative viability (Selumetinib + Lapatinib; first compound 0.02 µM): 1.16 | relative viability (Selumetinib + Lapatinib; first compound 0.06325 µM): 0.852 | relative viability (Selumetinib + Lapatinib; first compound 0.2 µM): 0.848 | relative viability (Selumetinib + Lapatinib; first compound 0.6325 µM): 0.924 | relative viability (Selumetinib + Dasatinib; first compound 0.02 µM): 0.281 | relative viability (Selumetinib + Dasatinib; first compound 0.06325 µM): 0.31 | relative viability (Selumetinib + Dasatinib; first compound 0.2 µM): 0.308 | relative viability (Selumetinib + Dasatinib; first compound 0.6325 µM): 0.389

201T
relative viability (Venetoclax + OSI-027; first compound 0.01 µM): 0.728 | relative viability (Venetoclax + OSI-027; first compound 0.03162 µM): 0.724 | relative viability (Venetoclax + OSI-027; first compound 0.1 µM): 0.687 | relative viability (Venetoclax + OSI-027; first compound 0.3162 µM): 0.774 | relative viability (Venetoclax + OSI-027; first compound 1 µM): 0.628 | relative viability (Venetoclax + Pictilisib; first compound 0.01 µM): 0.635 | relative viability (Venetoclax + Pictilisib; first compound 0.03162 µM): 0.653 | relative viability (Venetoclax + Pictilisib; first compound 0.1 µM): 0.659 | relative viability (Venetoclax + Pictilisib; first compound 0.3162 µM): 0.73 | relative viability (Venetoclax + Pictilisib; first compound 1 µM): 0.683 | relative viability (Selumetinib + Lapatinib; first compound 0.02 µM): 1.01 | relative viability (Selumetinib + Lapatinib; first compound 0.06325 µM): 0.963 | relative viability (Selumetinib + Lapatinib; first compound 0.2 µM): 0.958 | relative viability (Selumetinib + Lapatinib; first compound 0.6325 µM): 0.949 | relative viability (Selumetinib + Dasatinib; first compound 0.02 µM): 0.589 | relative viability (Selumetinib + Dasatinib; first compound 0.06325 µM): 0.571 | relative viability (Selumetinib + Dasatinib; first compound 0.2 µM): 0.585 | relative viability (Selumetinib + Dasatinib; first compound 0.6325 µM): 0.555

HCC-78
relative viability (Venetoclax + OSI-027; first compound 0.01 µM): 0.4 | relative viability (Venetoclax + OSI-027; first compound 0.03162 µM): 0.387 | relative viability (Venetoclax + OSI-027; first compound 0.1 µM): 0.35 | relative viability (Venetoclax + OSI-027; first compound 0.3162 µM): 0.347 | relative viability (Venetoclax + OSI-027; first compound 1 µM): 0.371 | relative viability (Venetoclax + Pictilisib; first compound 0.01 µM): 0.179 | relative viability (Venetoclax + Pictilisib; first compound 0.03162 µM): 0.244 | relative viability (Venetoclax + Pictilisib; first compound 0.1 µM): 0.187 | relative viability (Venetoclax + Pictilisib; first compound 0.3162 µM): 0.206 | relative viability (Venetoclax + Pictilisib; first compound 1 µM): 0.238 | relative viability (Selumetinib + Lapatinib; first compound 0.02 µM): 0.695 | relative viability (Selumetinib + Lapatinib; first compound 0.06325 µM): 0.64 | relative viability (Selumetinib + Lapatinib; first compound 0.2 µM): 0.657 | relative viability (Selumetinib + Lapatinib; first compound 0.6325 µM): 0.675 | relative viability (Selumetinib + Dasatinib; first compound 0.02 µM): 0.395 | relative viability (Selumetinib + Dasatinib; first compound 0.06325 µM): 0.344 | relative viability (Selumetinib + Dasatinib; first compound 0.2 µM): 0.347 | relative viability (Selumetinib + Dasatinib; first compound 0.6325 µM): 0.364
